For one molecule, EC50 results are on record in US9493506B2 (Enanta Pharmaceuticals, Inc., priority 2010, dated 2016).

For test [1], the system named is HCV replicon with a D168E mutation in a 1a-H77 background. The experiment in a line: transient replicon assay, D168E mutation in 1a-H77 background. The test is classed as cell-based, hepatitis C virus (genotype 1a-H77). The settings on record: Hepatitis C virus, read-out: EC50 in a transient replicon assay with a D168E mutation in a 1a-H77 background. In a few lines:
(§1)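 Transient transfection of mutant replicon RNA (1a-H77 with NS2–NS5B, or 1b-N with NS3–NS5B plus E1202G/S2204I) by electroporation into IFN-cured Huh7 cells, plated at 7.5×10^3 cells per well in DMEM with 5% FBS. Serial compound dilutions added 4 h post-transfection (0.5% DMSO final).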
Background: In antiviral work, replicon cells carry a viral genome segment that copies itself.

Test [2] has as its system HCV replicon with a D168V mutation in a 1a-H77 background. Put plainly: transient replicon assay, D168V mutation in 1a-H77 background. The test is classed as cell-based, hepatitis C virus (genotype 1a-H77). The settings on record: Hepatitis C virus, read-out: EC50 in a transient replicon assay with a D168V mutation in a 1a-H77 background. The gist of the method: as §1
Test [3] deals with HCV replicon with a R155K mutation in a 1b-N background. Put plainly: transient replicon assay, R155K mutation in 1b-N background. It counts as cell-based, hepatitis C virus (genotype 1b-N). The settings on record: Hepatitis C virus, read-out: EC50 in a transient replicon assay with a R155K mutation in a 1b-N background. The procedure: Replicon cell lines can be maintained in Dulbecco's modified Eagles medium (DMEM) containing 100 IU/ml penicillin, […] streptomycin (Invitrogen), […] G418 (Invitrogen) and 10% (v/v) fetal bovine serum (FBS). Replicon-containing cells can be seeded into 96 well plates at a density of 5000 cells per well in 100 μl DMEM containing 5% FBS. The next day, the compound can be initially diluted in dimethyl sulfoxide (DMSO) to generate a 200× stock of the inhibitor in a series of 8 half-log dilutions. The dilution series can then be diluted 100-fold in the medium containing 5% FBS. […] The inhibitory effects of compounds against the replicons can be determined by measuring either the level of luciferase or HCV RNA. […] Luciferin solution (50 μl, Promega) is added, and luciferase activity is measured with a Victor II luminometer (Perkin-Elmer). To determine HCV RNA levels, RNA extractions can be performed using the CellsDirect kit (Invitrogen), and the HCV RNA copy number can be measured using the SuperScript III Platinum One-Step qRT-PCR system (Invitrogen) and primers specific to the HCV 5′ nontranslated region. Cytotoxicity can be determined by the 3-[4,5-dimethylhiazol-2-yl]-2,5-diphenyltetrazolium bromide (MTT) colorimetric assay as follows. […] The plates are incubated overnight and the optical density can be measured at 570 nm. […]

Broadly, the EC50 is the midpoint of the concentration-response curve.

For `CCc1nc2cccc(F)c2nc1O[C@@H]1C[C@H]2C(=O)N[C@]3(C(=O)NS(=O)(=O)C4(C)CC4)C[C@H]3/C=C\CCCCC[C@H](NC(=O)OC(C)(C)C)C(=O)N2C1` [Example 164, tert-butyl (2R,6S,13aS,14aR,16aS,Z)-2-(3-ethyl-8-fluoroquinoxalin-2-yloxy)-14a-(1-methylcyclopropylsulfonylcarbamoyl)-5,16-dioxo-1,2,3,5,6,7,8,9,10,11,13a,14,14a,15,16,16a-hexadecahydrocyclopropa[e]pyrrolo[1,2-a][1,4]diazacyclopentadecin-6-ylcarbamate], the EC50 in test [1] fell in the range of 20 to 50 nM; in test [2], 50 to 250 nM; in test [3], 1 to 10 nM.
